# Target: T1, N370S glucocerebrosidase from human spleen homogenate (Homo sapiens, UniProt P04062, N409S)
# T1 construct: N370S glucocerebrosidase from human spleen homogenate as the enzyme preparation; from tissue; host or cells: human spleen homogenate
# T1 sequence (P04062 40-536 N409S): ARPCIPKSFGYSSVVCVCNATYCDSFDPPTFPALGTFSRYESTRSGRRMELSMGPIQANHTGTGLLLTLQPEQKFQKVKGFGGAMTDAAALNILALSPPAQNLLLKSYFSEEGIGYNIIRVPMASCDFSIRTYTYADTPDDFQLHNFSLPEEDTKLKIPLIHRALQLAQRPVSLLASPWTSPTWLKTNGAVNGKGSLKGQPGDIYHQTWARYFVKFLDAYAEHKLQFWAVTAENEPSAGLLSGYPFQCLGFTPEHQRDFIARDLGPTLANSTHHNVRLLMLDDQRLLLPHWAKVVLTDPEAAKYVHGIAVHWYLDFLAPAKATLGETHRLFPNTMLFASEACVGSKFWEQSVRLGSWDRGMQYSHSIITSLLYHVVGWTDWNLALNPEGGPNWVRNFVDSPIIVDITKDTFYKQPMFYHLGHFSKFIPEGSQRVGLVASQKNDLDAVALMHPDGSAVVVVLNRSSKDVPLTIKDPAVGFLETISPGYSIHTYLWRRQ
# Test: qHTS fluorogenic enzyme assay for activators of N370S glucocerebrosidase (4-methylumbelliferyl-beta-D-glucopyranoside substrate)
# Type: biochemical
# Details: pH 5.0, 37° C. 40 min
row,Structure (SMILES),AC50
1,"C#Cc1ccc(NC(=O)c2cnn3c(C)cc(C)nc23)cc1 [NCGC00188758-01, N-(4-ethynylphenyl)-5,7-dimethylpyrazolo[1,5-a]pyrimidine-3-carboxamide]",0.366 µM
2,"Cc1cc(-c2ccccc2)n2ncc(C(=O)NC3CCC(C(C)(C)C)CC3)c2n1 (stereo not drawn) [NCGC0229711-01, N-(4-tert-butylcyclohexyl)-5-methyl-7-phenylpyrazolo[1,5-a]pyrimidine-3-carboxamide]",32.6 µM
3,"Cc1cc(C)n2ncc(C(=O)Nc3ccccc3Sc3ccccc3)c2n1 [NCGC00229712-01, 5,7-dimethyl-N-(2-(phenylthio)phenyl)pyrazolo[1,5-a]pyrimidine-3-carboxamide]",18.3 µM
4,"Cc1cc(C)n2ncc(C(=O)Nc3ccc(Cl)c(Cl)c3)c2n1 [NCGC00229713-01, N-(3,4-dichlorophenyl)-5,7-dimethylpyrazolo[1,5-a]pyrimidine-3-carboxamide]",3.66 µM
5,"CCc1ccc(NC(=O)c2cnn3c(C)cc(-c4ccccc4)nc23)cc1 [NCGC00229714-01, N-(4-ethylphenyl)-7-methyl-5-phenylpyrazolo[1,5-a]pyrimidine-3-carboxamide]",13 µM
6,"Cc1cc(-c2ccccc2)nc2c(C(=O)Nc3ccc(Cl)c(Cl)c3)cnn12 [NCGC00229715-01, N-(3,4-dichlorophenyl)-7-methyl-5-phenylpyrazolo[1,5-a]pyrimidine-3-carboxamide]",6.51 µM
7,"Cc1cc(C)n2ncc(C(=O)Nc3cc(Cl)cc(Cl)c3)c2n1 [NCGC00229716-01, N-(3,5-dichlorophenyl)-5,7-dimethylpyrazolo[1,5-a]pyrimidine-3-carboxamide]",25.9 µM
8,"CCc1ccc(NC(=O)c2cnn3c(-c4ccccc4)cc(C)nc23)cc1 [NCGC00229717-01, N-(4-ethylphenyl)-5-methyl-7-phenylpyrazolo[1,5-a]pyrimidine-3-carboxamide]",9.19 µM
9,"Cc1ccc(NC(=O)c2cnn3c(-c4ccccc4)cc(C)nc23)cc1 [NCGC0229718-01, 5-methyl-7-phenyl-N-p-tolylpyrazolo[1,5-a]pyrimidine-3-carboxamide]",206 µM
10,"Cc1cc(-c2ccccc2)nc2c(C(=O)Nc3ccc4c(c3)CCC4)cnn12 [NCGC00229719-01, N-(2,3-dihydro-1H-inden-5-yl)-7-methyl-5-phenylpyrazolo[1,5-a]pyrimidine-3-carboxamide]",8.19 µM

# Target: T2, GCase (Homo sapiens, UniProt P04062, N409S)
# T2 construct: evaluated in a N370S patient derived fibroblast for chaperone activity; endogenous in cells; host or cells: N370S Gaucher patient-derived fibroblasts
# T2 sequence (P04062 40-536 N409S): T1 sequence (P04062 40-536 N409S)
# Test: Chaperone activity in N370S patient derived fibroblast (GCase/LAMP/DAPI staining)
# Type: cell-based
# Details: NGC00188758-1 1 μM and 5 μM, isofagomine 1 μM, overlay of anti GCase R386 and LAMP stains
# Description: GCase was visualized with red stain (anti GCase R386 antibody), lysosome with green (LAMP), and nucleus with blue (DAPI). […] All laser settings were held constant across all of the fields imaged.
row,Structure (SMILES),GCase activity in the lysosome relative to vehicle control
1,"C#Cc1ccc(NC(=O)c2cnn3c(C)cc(C)nc23)cc1 [NCGC00188758-01, N-(4-ethynylphenyl)-5,7-dimethylpyrazolo[1,5-a]pyrimidine-3-carboxamide]",significantly increased GCase activity in the lysosome
2,"OC[C@H]1CNC[C@@H](O)[C@@H]1O [isofagomine, reference compound]",significantly increased GCase activity in the lysosome
